Read-outs that look alike come from different tables or passages of the source.
Columns and labels:
[1] = tested on: p75^NTR receptors (PC12 cells); assay: Basic screening assay: binding of 125I-NGF to PC12 cells; conditions: Table 1; test compound 50 μM; 0.5 nM 125I-NGF; PC12 cells; 2 h at 4° C.; specific binding as percent of control
Procedure: (§1) The compounds were screened for effects on binding of ^125I-BDNF or ^125I-NGF to PC12 cells (p75^NTR receptors), and those that inhibited binding were further tested to determine the EC50 for this inhibition.
(§2) PC12 cells were cultured and prepared for binding assays as described in Example 1.
Lyophilized Serotec mouse 2.5S NGF (Cedarlane Laboratories, Toronto, Canada, cat. # PMP 04Z) was reconstituted under sterile conditions to 1 mg/mL (38 μM) in sterile 0.2% acetic acid, and 100 μL or 50 μL aliquots were stored frozen at −80° C.
(§3) Lypophilized Peprotech human recombinant BDNF (Cedarlane Laboratories, Toronto, Canada, cat. # PE 450-02-10) was reconstituted under sterile conditions to 3.5 μM in sterile HKR/1%BSA, and either used immediately or stored in aliquots of 20 μl at −80° C. Immediately prior to use, a 15 nM (30×) solution of ^125I-BDNF or ^125I-NGF was prepared in HKR buffer, and was used at 0.5 nM final concentration.
(§4) Test Compounds were dissolved to 10 mM in DMSO, and those that were not initially soluble were warmed to 40-50° C. and vortexed. Those compounds that were still not in solution were reported as such. Compounds were then stored in this form at −20° C. until use. Immediately before experiments, 100 mM compounds were diluted to 10 mM in DMSO (1:10), followed by a further dilution to 1 mM (1:10) with distilled water, and a further dilution to 500 μM (1:1) with HKR.
(§5) Assays to determine maximum binding (Bmax), non-specific binding (NSB), and binding in the presence of each test compound (e.g., x, y) were performed at least in duplicate. In a total volume of 300 μL, 4×10^6 PC12 cells were incubated, rotating for 2 h at 4° C. with the following:
(§6) At the conclusion of the binding reaction, 100 μL aliquots of the reaction mixtures were carefully layered over 200 μL of a 10% glycerol solution in a 0.4 mL tube, and subjected to centrifugation in a microcentrifuge for 2 minutes at half maximum speed. The cell pellets containing the bound ^125I-BDNF or ^125I-NGF were then measured using a gamma counter. The mean values of the replicates were then calculated to determine the value for maximum binding (Bmax) and nonspecific binding (NSB), and binding in the presence of test compound at 50 μM (Bx). Specific binding (SB) was measured by subtracting the NSB from the Bmax. Specific binding in the presence of the test compound (SBx) was determined by subtracting the NSB from the Bx for each test compound; and each SBx was divided by SB and multiplied by 100 to give the specific binding in the presence of the compound as a percent of control specific binding.

[2] = biological target: T1, p75^NTR receptors (PC12 cells) (Rattus norvegicus, UniProt P07174); assay: Basic screening assay: binding of 125I-BDNF to PC12 cells; conditions: read-out: BDNF Activity % Maximal Binding
T1 construct: endogenous in cells; host or cells: PC12 cells
T1 sequence (P07174 30-425): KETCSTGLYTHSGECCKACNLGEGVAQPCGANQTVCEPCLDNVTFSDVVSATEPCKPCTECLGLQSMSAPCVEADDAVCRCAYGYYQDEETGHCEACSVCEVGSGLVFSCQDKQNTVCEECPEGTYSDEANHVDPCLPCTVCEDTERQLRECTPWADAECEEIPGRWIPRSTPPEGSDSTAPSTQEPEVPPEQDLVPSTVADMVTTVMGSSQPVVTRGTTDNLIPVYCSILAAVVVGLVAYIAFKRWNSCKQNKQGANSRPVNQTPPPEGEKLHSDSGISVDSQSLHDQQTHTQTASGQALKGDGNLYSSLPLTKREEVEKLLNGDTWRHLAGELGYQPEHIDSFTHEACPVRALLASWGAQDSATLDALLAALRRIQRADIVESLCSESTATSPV
T1 sequence (P23560 129-247 partner): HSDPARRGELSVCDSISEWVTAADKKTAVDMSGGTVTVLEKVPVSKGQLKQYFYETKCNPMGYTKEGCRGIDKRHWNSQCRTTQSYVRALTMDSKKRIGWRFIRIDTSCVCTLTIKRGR
Procedure: as §1, §2, §3, §4, §5
as §6, with “Bmax.” for “Bmax. Specific binding in the presence of the test compound (SBx) was determined by subtracting the NSB from the Bx for each test compound; and each SBx was divided by SB and multiplied by 100 to give the specific binding in the presence of the compound as a percent of control specific binding.”

[3] = Table 1, test compound 50 μM, 0.5 nM 125I-BDNF, PC12 cells, 2 h at 4° C., specific binding as percent of control

Row | Compound | NGF Activity % Maximal Binding [1] | activity at 50 µM [2, 3] [%] | activity at 50 µM [2] [%]
1 | CCOC(=O)CN1C(=O)S/C(=C/c2ccc(-c3ccc(C(=O)O)c(Cl)c3)o2)C1=O [Compound 24, 2-Chloro-4-[5-(3-ethoxycarbonylmethyl-2,4-dioxo-thiazolidin-5-ylidenemethyl)furan-2-yl]benzoic acid] | * (50 < *) | 0 to 10 | 
2 | Cc1cc(-c2ccc(C=C3C(=O)NC(=S)NC3=O)o2)cc([N+](=O)[O-])c1C [Compound 25, 5-[5-(3,4-Dimethyl-5-nitrophenyl)furan-2-ylmethylene]-2-thioxo-dihydro-pyrimidine-4,6-dione] | * (50 < *) |  | 0 to 10
3 | O=C1NC(=O)C(=Cc2ccc(-c3ccc([N+](=O)[O-])cc3)o2)C(=O)N1 [Compound 26, 5-[5-(4-Nitrophenyl)furan-2-ylmethylene]-pyrimidine-2,4,6-trione] | * (50 < *) |  | 0 to 10
4 | O=C(O)c1ccc(-c2ccc(/C=C3/NC(=O)N(Cc4ccccc4F)C3=O)o2)cc1Cl [Compound 27, 2-Chloro-4-{5-[1-(2-fluorobenzyl)-2,5-dioxo-imidazolidin-4-ylidenemethyl]furan-2-yl}benzoic acid] | * (50 < *) | 0 to 10 | 
5 | O=C(O)c1cc(-c2ccc(/C=C3\NC(=O)N(Cc4ccc(F)cc4)C3=O)o2)ccc1Cl [Compound 28, 2-Chloro-5-{5-[1-(4-fluorobenzyl)-2,5-dioxo-imidazolidin-4-ylidenemethyl]furan-2-yl}benzoic acid] | * (50 < *) | 10 to 20 | 
6 | COC(=O)C(C)N1C(=O)S/C(=C/c2ccc(-c3cc(C(=O)O)ccc3C)o2)C1=O (stereo not drawn) [Compound 29, 3-{5-[3-(1-Methoxycarbonyl-ethyl)-2,4-dioxo-thiazolidin-5-ylidenemethyl]furan-2-yl}-4-methylbenzoic acid] | * (50 < *) | 10 to 20 | 
7 | COc1ccc(-c2ccc(C=C3C(=O)N(C)C(=O)N(C)C3=O)o2)cc1[N+](=O)[O-] [Compound 31, 5-[5-(4-Methoxy-3-nitrophenyl)furan-2-ylmethylene]-1,3-dimethyl-pyrimidine-2,4,6-trione] | * (50 < *) |  | 10 to 20
8 | COC(=O)c1ccc(-c2ccc(/C=C3\C(=O)NC(=O)N(Cc4ccccc4)C3=O)o2)cc1 [Compound 32, 4-[5-(1-benzyl-2,4,6-trioxo-tetrahydro-pyrimidin-5-ylidenemethyl)furan-2-yl]benzoic acid methyl ester] | * (50 < *) |  | 10 to 20
9 | O=C1NC(=O)/C(=C\c2ccc(-c3ccc([N+](=O)[O-])cc3Cl)o2)S1 [Compound 33, 5-[5-(2-Chloro-4-nitrophenyl)furan-2-ylmethylene]-thiazolidine-2,4-dione] | * (50 < *) | 10 to 20 | 
10 | COCCN1C(=O)C(=Cc2ccc(-c3cccc([N+](=O)[O-])c3)o2)SC1=S [Compound 34, 3-(2-Methoxy-ethyl)-5-[5-(3-nitrophenyl)furan-2-ylmethylene]-2-thioxo-thiazolidin-4-one] | * (50 < *) | 10 to 20 | 
11 | O=C(O)c1ccc(-c2ccc(/C=C3/NC(=O)N(c4cccc(Cl)c4)C3=O)o2)cc1Cl [Compound 36, 2-Chloro-4-{5-[1-(3-chlorophenyl)-2,5-dioxo-imidazolidin-4-ylidenemethyl]furan-2-yl}benzoic acid] | * (50 < *) | 10 to 20 | 
12 | COc1ccc(CN2C(=O)/C(=C\c3ccc(-c4ccc(S(N)(=O)=O)cc4)o3)SC2=S)cc1 [Compound 37, 4-{5-[3-(4-Methoxybenzyl)-4-oxo-2-thioxo-thiazolidin-5-ylidenemethyl]furan-2-yl}benzenesulfonamide] | * (50 < *) | 20 to 30 | 
13 | O=C(O)CN1C(=O)C(=Cc2ccc(-c3ccc([N+](=O)[O-])cc3)o2)SC1=S [Compound 38, {5-[5-(4-Nitrophenyl)furan-2-ylmethylene]-4-oxo-2-thioxo-thiazolidin-3-yl}-acetic acid] | * (50 < *) | 20 to 30 | 
14 | CN1C(=O)NC(=O)C(=Cc2ccc(-c3ccc([N+](=O)[O-])cc3)o2)C1=O [Compound 39, 1-Methyl-5-[5-(4-nitrophenyl)furan-2-ylmethylene]-pyrimidine-2,4,6-trione] | * (50 < *) |  | 20 to 30
15 | Cc1cc([N+](=O)[O-])ccc1-c1ccc(C=C2SC(=S)N(CC(=O)O)C2=O)o1 [Compound 40, {5-[5-(2-Methyl-4-nitrophenyl)furan-2-ylmethylene]-4-oxo-2-thioxo-thiazolidin-3-yl}-acetic acid] | * (50 < *) | 20 to 30 | 
16 | Cc1cc(C(=O)O)ccc1-c1ccc(/C=C2/NC(=O)NC2=O)o1 [Compound 41, 4-[5-(2,5-Dioxo-imidazolidin-4-ylidenemethyl)furan-2-yl]-3-methylbenzoic acid] | * (50 < *) | 20 to 30 | 
17 | Cc1cccc(N2NC(=O)/C(=C/c3ccc(-c4ccc(Cl)c([N+](=O)[O-])c4)o3)C2=O)c1 [Compound 44, 4-[5-(4-Chloro-3-nitrophenyl)furan-2-ylmethylene]-1-m-tolyl-pyrazolidine-3,5-dione] | * (50 < *) | 30 to 40 | 
18 | CN1C(=O)/C(=C/c2ccc(-c3ccc(S(N)(=O)=O)cc3)o2)SC1=S [Compound 45, 4-[5-(3-Methyl-4-oxo-2-thioxo-thiazolidin-5-ylidenemethyl)furan-2-yl]benzenesulfonamide] | * (50 < *) | 30 to 40 | 
19 | COC(=O)c1ccc(-c2ccc(/C=C3/NC(=O)N(Cc4ccc(F)cc4)C3=O)o2)c(C)c1 [Compound 46, 4-{5-[1-(4-Fluorobenzyl)-2,5-dioxo-imidazolidin-4-ylidenemethyl]furan-2-yl}-3-methylbenzoic acid methyl ester] | * (50 < *) | 30 to 40 | 
20 | O=C1NC(=S)N/C1=C/c1ccc(-c2ccc([N+](=O)[O-])cc2Cl)o1 [Compound 47, 5-[5-(2-Chloro-4-nitrophenyl)furan-2-ylmethylene]-2-thioxo-imidazolidin-4-one] | * (50 < *) | 30 to 40 | 
21 | CC1=NN(c2ccc(F)cc2)C(=O)/C1=C\c1ccc(-c2ccc(C(=O)O)cc2)o1 [Compound 49, 4-{5-[1-(4-Fluorophenyl)-3-methyl-5-oxo-1,5-dihydro-pyrazol-4-ylidenemethyl]furan-2-yl}benzoic acid] | * (50 < *) | 30 to 40 | 
